# Experiments:
# [1] = system: F21D (DNA, G4) GGGTTAGGGTTAGGGTTAGGG; assay: FRET melting; settings: 5 mM KCl, 95 mM LiCl; 10 mM lithium cacodylate, pH 7.2; 0.4 µM ligand, 0.2 µM F21D
# [2] = system: Tel22 (DNA, G4) AGGGTTAGGGTTAGGGTTAGGG; assay: UV-Vis titration, direct fit; settings: 5 mM KCl, 95 mM LiCl, 10 mM lithium cacodylate, stoichiometry fixed, equivalent sites
# [3] = system: Tel22 (DNA, G4) AGGGTTAGGGTTAGGGTTAGGG; assay: fluorescence titration, direct fit; settings: 5 mM KCl, 95 mM LiCl; 10 mM lithium cacodylate, pH 7.2, 20 °C; 1.7-2.0 µM PtTMPyP4; equivalent sites
# [4] = system: Tel22 (DNA, G4) AGGGTTAGGGTTAGGGTTAGGG; assay: fluorescence light-switch, plate reader; settings: 10 mM lithium cacodylate, pH 7.2, 25 °C, about 0.1 µM PtTMPyP4, DNA:porphyrin 50:1, intensity ratio, not affinity
# [5] = system: 17A (DNA, single strand) CCAGTTCGTAGTAACCC; assay: fluorescence light-switch, plate reader; settings: 5 mM KCl, 95 mM LiCl; 10 mM lithium cacodylate, pH 7.2, 25 °C; about 0.1 µM PtTMPyP4, DNA:porphyrin 50:1; intensity ratio, not affinity
# [6] = system: 17B (DNA, single strand) GGGTTACTACGAACTGG; assay: fluorescence light-switch, plate reader; settings: 5 mM KCl, 95 mM LiCl; 10 mM lithium cacodylate, pH 7.2, 25 °C; about 0.1 µM PtTMPyP4, DNA:porphyrin 50:1; intensity ratio, not affinity
# [7] = system: 17AB (DNA, duplex) CCAGTTCGTAGTAACCC/GGGTTACTACGAACTGG; assay: fluorescence light-switch, plate reader; settings: 5 mM KCl, 95 mM LiCl; 10 mM lithium cacodylate, pH 7.2, 25 °C; about 0.1 µM PtTMPyP4, DNA:porphyrin 50:1; intensity ratio, not affinity
# [8] = system: ds26 (DNA, duplex) CAATCGGATCGAATTCGATCCGATTG; assay: fluorescence light-switch, plate reader; settings: 5 mM KCl, 95 mM LiCl; 10 mM lithium cacodylate, pH 7.2, 25 °C; about 0.1 µM PtTMPyP4, DNA:porphyrin 50:1; intensity ratio, not affinity
# [9] = system: VEGF (DNA, G4) GGGAGGGTTGGGGTGGG; assay: fluorescence light-switch, plate reader; settings: 5 mM KCl, 95 mM LiCl; 10 mM lithium cacodylate, pH 7.2, 25 °C; about 0.1 µM PtTMPyP4, DNA:porphyrin 50:1; intensity ratio, not affinity
# [10] = system: cMyc (DNA, G4) TGAGGGTGGGTAGGGTGGGTAA; assay: fluorescence light-switch, plate reader; settings: 5 mM KCl, 95 mM LiCl; 10 mM lithium cacodylate, pH 7.2, 25 °C; about 0.1 µM PtTMPyP4, DNA:porphyrin 50:1; intensity ratio, not affinity
# [11] = system: 26TelG4 (DNA, G4) AGGGGTTAGGGGTTAGGGGTTAGGGG; assay: fluorescence light-switch, plate reader; settings: 10 mM lithium cacodylate, pH 7.2, 25 °C, about 0.1 µM PtTMPyP4, DNA:porphyrin 50:1, intensity ratio, not affinity
# [12] = system: Bcl-2 (DNA, G4) GGGCGCGGGAGGGAATTGGGCGGG; assay: fluorescence light-switch, plate reader; settings: 5 mM KCl, 95 mM LiCl; 10 mM lithium cacodylate, pH 7.2, 25 °C; about 0.1 µM PtTMPyP4, DNA:porphyrin 50:1; intensity ratio, not affinity
# [13] = system: cKit1 (DNA, G4) GGGAGGGCGCTGGGAGGAGGG; assay: fluorescence light-switch, plate reader; settings: 5 mM KCl, 95 mM LiCl; 10 mM lithium cacodylate, pH 7.2, 25 °C; about 0.1 µM PtTMPyP4, DNA:porphyrin 50:1; intensity ratio, not affinity
# [14] = system: G4TERT (DNA, G4) AGGGGAGGGGCTGGGAGGGC; assay: fluorescence light-switch, plate reader; settings: 5 mM KCl, 95 mM LiCl; 10 mM lithium cacodylate, pH 7.2, 25 °C; about 0.1 µM PtTMPyP4, DNA:porphyrin 50:1; intensity ratio, not affinity
# [15] = system: TBA (DNA, G4) GGTTGGTGTGGTTGG; assay: fluorescence light-switch, plate reader; settings: 10 mM lithium cacodylate, pH 7.2, 25 °C, about 0.1 µM PtTMPyP4, DNA:porphyrin 50:1, intensity ratio, not affinity
# [16] = system: G4T4G4 (DNA, G4) GGGGTTTTGGGG; assay: fluorescence light-switch, plate reader; settings: 10 mM lithium cacodylate, pH 7.2, 25 °C, about 0.1 µM PtTMPyP4, DNA:porphyrin 50:1, intensity ratio, not affinity
smiles,measurement,setting,value
C[n+]1ccc(-c2c3nc(c(-c4cc[n+](C)cc4)c4ccc([n-]4)c(-c4cc[n+](C)cc4)c4nc(c(-c5cc[n+](C)cc5)c5ccc2[n-]5)C=C4)C=C3)cc1.[Pt+2],ΔTm,[1],30.7 ± 0.6 °C
same,binding affinity,"[2]; pH 7.2, 20 °C",(5.8 ± 0.8) × 10^6 M^-1
same,binding constant,[3],(1.8 ± 0.3) × 10^6 M^-1
same,Fluorescence enhancement,"[4]; 5 mM KCl, 95 mM LiCl",71.8 ± 10
same,Fluorescence enhancement,"[4]; 50 mM NaCl, 50 mM LiCl",54.2 ± 14.6
same,Fluorescence enhancement,[5],38.1 ± 1.5
same,Fluorescence enhancement,[6],43.9 ± 3.0
same,Fluorescence enhancement,[7],46.0 ± 0.7
same,Fluorescence enhancement,[8],39.1 ± 5.2
same,Fluorescence enhancement,[9],76.9 ± 3.8
same,Fluorescence enhancement,[10],28.0 ± 5.0
same,Fluorescence enhancement,"[11]; 5 mM KCl, 95 mM LiCl",65.4 ± 4.8
same,Fluorescence enhancement,"[11]; 50 mM NaCl, 50 mM LiCl",54.1 ± 15
same,Fluorescence enhancement,[12],39.2 ± 5.7
same,Fluorescence enhancement,[13],28.0 ± 5.6
same,Fluorescence enhancement,[14],85.7 ± 0.9
same,Fluorescence enhancement,"[15]; 5 mM KCl, 95 mM LiCl",29.5 ± 5.4
same,Fluorescence enhancement,"[15]; 50 mM NaCl, 50 mM LiCl",32.6 ± 6.8
same,Fluorescence enhancement,"[16]; 5 mM KCl, 95 mM LiCl",42.2 ± 9.2
same,Fluorescence enhancement,"[16]; 50 mM NaCl, 50 mM LiCl",40.5 ± 12
C[n+]1ccc(-c2c3nc(c(-c4cc[n+](C)cc4)c4ccc([n-]4)c(-c4cc[n+](C)cc4)c4nc(c(-c5cc[n+](C)cc5)c5ccc2[n-]5)C=C4)C=C3)cc1.[Pd+2],ΔTm,[1],30.9 ± 0.4 °C
same,binding affinity,[2]; pH 7.2,(1.0 ± 0.3) × 10^7 M^-1

# — PMC4801998 (2016)
